ChEMBL document CHEMBL2074094 (Arch Biochem Biophys, 1998)

What was measured:
[1] = target: ATP-dependent translocase ABCB1 (Homo sapiens, UniProt P08183); test: TP_TRANSPORTER: transepithelial transport (basal to apical) in MDR1-expressing LLC-PK1 cells; assay type: functional, cell-based; conditions: pig
[2] = target: T1, ATP-dependent translocase ABCB1 (Mus musculus, UniProt P21447); test: TP_TRANSPORTER: transepithelial transport (basal to apical) in mdr1a-expressing LLC-PK1 cell; assay type: functional, cell-based; conditions: pig
[3] = target: T1, ATP-dependent translocase ABCB1; test: TP_TRANSPORTER: tissue concentration in mdr1a(-/-) mouse; assay type: functional, organism-based; conditions: in vivo

T1 sequence (P21447 whole entry): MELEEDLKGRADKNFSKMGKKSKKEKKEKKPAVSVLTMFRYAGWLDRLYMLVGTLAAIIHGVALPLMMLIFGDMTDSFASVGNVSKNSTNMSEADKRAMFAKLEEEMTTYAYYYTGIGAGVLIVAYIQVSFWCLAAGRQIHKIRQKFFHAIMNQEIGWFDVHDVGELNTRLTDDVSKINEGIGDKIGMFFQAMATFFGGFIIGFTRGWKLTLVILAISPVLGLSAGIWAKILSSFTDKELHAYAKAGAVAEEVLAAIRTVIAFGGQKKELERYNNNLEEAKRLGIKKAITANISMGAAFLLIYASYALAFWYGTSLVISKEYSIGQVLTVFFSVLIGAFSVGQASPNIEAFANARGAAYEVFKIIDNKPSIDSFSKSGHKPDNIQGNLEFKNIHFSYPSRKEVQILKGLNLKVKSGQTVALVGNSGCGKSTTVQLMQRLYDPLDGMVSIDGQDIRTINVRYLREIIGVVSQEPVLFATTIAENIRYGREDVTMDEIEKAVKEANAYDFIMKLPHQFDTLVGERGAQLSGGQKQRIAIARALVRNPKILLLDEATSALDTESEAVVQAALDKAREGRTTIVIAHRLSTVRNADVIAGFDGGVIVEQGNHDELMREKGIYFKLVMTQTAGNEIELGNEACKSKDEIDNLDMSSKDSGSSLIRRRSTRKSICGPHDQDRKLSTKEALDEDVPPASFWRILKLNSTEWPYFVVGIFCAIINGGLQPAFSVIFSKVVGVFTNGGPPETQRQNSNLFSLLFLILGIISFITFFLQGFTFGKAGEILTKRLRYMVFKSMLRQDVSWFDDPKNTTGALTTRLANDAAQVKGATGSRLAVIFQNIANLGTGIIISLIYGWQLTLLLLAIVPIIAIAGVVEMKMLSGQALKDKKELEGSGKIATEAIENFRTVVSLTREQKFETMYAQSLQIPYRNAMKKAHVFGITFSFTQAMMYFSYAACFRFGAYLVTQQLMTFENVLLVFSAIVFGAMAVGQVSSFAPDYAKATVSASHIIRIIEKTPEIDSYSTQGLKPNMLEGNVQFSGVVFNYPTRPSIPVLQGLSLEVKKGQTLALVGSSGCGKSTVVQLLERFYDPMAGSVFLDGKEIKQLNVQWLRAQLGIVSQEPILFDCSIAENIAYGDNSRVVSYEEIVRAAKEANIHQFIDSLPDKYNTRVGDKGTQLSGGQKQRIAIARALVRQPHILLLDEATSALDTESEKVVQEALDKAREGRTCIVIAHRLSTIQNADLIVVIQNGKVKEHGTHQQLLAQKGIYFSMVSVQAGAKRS
Chain of ATP-dependent translocase ABCB1 (Homo sapiens, UniProt P08183) (P08183 whole entry): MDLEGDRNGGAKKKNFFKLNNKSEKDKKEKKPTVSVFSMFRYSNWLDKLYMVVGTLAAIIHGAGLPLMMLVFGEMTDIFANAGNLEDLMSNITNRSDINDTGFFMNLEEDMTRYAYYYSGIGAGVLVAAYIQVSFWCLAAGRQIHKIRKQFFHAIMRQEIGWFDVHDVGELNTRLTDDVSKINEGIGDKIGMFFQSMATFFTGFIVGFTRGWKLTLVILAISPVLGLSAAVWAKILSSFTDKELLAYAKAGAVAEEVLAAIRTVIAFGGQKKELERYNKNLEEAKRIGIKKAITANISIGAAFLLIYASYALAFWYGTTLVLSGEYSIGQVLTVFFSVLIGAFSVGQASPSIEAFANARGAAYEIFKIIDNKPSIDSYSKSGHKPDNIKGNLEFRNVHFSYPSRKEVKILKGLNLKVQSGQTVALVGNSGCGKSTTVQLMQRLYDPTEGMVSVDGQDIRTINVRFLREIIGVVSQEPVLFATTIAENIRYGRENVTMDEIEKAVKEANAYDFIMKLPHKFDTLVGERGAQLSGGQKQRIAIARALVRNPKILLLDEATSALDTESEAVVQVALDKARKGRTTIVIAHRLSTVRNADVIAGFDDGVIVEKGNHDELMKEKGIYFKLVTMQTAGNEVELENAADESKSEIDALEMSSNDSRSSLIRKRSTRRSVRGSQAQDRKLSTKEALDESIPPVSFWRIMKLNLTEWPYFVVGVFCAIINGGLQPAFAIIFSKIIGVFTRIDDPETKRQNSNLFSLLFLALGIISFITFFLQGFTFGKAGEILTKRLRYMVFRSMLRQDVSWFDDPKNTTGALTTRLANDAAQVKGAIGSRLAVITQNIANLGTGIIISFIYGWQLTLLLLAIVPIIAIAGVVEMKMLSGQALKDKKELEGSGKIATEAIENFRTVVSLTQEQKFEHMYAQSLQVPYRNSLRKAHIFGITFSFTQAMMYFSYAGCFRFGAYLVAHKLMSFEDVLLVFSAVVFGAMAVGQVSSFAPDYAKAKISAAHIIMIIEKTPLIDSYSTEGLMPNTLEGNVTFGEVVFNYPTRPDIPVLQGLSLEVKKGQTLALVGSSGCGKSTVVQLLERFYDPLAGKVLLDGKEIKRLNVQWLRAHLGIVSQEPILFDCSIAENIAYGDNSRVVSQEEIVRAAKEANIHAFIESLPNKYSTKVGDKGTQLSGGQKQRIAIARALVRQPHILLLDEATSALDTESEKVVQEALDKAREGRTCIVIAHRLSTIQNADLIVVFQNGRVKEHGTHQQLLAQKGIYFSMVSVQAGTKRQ

| SMILES | Activity [1] | Activity [2] | Activity [3] |
| --- | --- | --- | --- |
| c1ccc2c(c1)cc1ccc3cccc4ccc2c1c34 | is not a substrate [-] | is not a substrate [-] |  |
| CC1=C(/C=C/C(C)=C/C=C/C(C)=C/C(=O)O)C(C)(C)CCC1 [TRETINOIN] | is not a substrate [-] | is not a substrate [-] | is not a substrate [-] |
